Source: ChEMBL document CHEMBL5356963, “Discovery of flavone-derivatives as the new skeleton of transient receptor potential vanilloid 3 channel antagonists” (Bioorg Med Chem Lett, 2024)
Activity calls are given as the source filed them. The rule behind the calls is not given here.

Assays:
Type in all cases: cell-based
[1] = biological target: T1, Transient receptor potential cation channel subfamily V member 3 (Homo sapiens) (UniProt Q8NET8); assay: Antagonist activity at human TRPV3 channel expressed in HEK293T cells assessed as inhibition of 2-APB induced channel current at 50 uM by whole cell patch clamp recordings relative to control
T1 sequence (whole entry): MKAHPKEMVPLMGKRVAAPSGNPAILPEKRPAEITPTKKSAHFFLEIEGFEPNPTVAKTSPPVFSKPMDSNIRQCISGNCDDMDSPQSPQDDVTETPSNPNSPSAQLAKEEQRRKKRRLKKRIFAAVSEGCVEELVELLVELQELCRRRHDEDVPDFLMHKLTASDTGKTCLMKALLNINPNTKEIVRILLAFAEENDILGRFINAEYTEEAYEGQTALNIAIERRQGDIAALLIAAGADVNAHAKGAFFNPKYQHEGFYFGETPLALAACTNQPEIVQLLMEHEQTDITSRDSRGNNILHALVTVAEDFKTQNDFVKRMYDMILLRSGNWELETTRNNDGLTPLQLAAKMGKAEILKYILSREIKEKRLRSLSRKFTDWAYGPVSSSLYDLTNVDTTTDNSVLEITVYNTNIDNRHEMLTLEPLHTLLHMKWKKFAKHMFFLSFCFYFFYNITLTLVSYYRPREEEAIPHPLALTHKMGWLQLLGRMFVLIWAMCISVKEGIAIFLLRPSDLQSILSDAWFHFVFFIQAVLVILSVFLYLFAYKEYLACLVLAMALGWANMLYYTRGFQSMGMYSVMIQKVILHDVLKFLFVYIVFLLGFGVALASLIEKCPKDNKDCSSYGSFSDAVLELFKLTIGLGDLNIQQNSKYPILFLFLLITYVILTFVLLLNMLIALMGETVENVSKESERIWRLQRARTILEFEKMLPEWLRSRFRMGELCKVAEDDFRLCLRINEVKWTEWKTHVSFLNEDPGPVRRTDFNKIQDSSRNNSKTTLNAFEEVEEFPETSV

[2] = biological target: T2, Transient receptor potential cation channel subfamily V member 3 (Homo sapiens, UniProt Q8NET8); assay: Antagonist activity at human TRPV3 channel expressed in HEK293T cells assessed as inhibition of 2-APB induced channel current by whole cell patch clamp recordings
T2 sequence (Q8NET8 whole entry): T1 sequence (whole entry)

[3] = biological target: Transient receptor potential cation channel subfamily V member 1 (Homo sapiens) (UniProt Q8NER1); assay: Antagonist activity at TRPV1 (unknown origin) expressed in HEK293T cells assessed as inhibition of agonist induced channel current by whole-cell patch clamp recordings
Sequence of Transient receptor potential cation channel subfamily V member 1 (Homo sapiens) (Q8NER1 whole entry): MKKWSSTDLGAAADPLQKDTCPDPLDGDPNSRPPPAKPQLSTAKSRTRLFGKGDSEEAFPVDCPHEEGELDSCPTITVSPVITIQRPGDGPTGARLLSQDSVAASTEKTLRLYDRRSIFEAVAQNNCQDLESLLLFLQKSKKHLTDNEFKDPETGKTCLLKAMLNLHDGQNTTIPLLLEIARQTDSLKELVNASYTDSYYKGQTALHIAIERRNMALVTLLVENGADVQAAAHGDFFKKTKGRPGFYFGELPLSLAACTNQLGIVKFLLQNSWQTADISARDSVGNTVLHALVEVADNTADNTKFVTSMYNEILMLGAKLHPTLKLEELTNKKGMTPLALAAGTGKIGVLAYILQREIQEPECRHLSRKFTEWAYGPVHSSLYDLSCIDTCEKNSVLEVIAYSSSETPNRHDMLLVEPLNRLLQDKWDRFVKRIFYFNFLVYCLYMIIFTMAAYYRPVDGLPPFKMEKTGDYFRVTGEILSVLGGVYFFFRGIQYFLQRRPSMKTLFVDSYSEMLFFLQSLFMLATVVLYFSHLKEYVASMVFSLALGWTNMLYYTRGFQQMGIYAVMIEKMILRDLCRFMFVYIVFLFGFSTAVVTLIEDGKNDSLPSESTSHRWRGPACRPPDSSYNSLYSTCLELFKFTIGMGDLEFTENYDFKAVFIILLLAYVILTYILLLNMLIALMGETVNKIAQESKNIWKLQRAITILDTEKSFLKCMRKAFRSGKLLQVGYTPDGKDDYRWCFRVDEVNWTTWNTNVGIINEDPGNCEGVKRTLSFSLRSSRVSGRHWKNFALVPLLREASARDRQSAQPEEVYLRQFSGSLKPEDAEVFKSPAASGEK

[4] = biological target: Transient receptor potential cation channel subfamily V member 4 (Homo sapiens) (UniProt Q9HBA0); assay: Antagonist activity at TRPV4 (unknown origin) expressed in HEK293T cells assessed as inhibition of agonist induced channel current by whole-cell patch clamp recordings
Sequence of Transient receptor potential cation channel subfamily V member 4 (Homo sapiens) (Q9HBA0 whole entry): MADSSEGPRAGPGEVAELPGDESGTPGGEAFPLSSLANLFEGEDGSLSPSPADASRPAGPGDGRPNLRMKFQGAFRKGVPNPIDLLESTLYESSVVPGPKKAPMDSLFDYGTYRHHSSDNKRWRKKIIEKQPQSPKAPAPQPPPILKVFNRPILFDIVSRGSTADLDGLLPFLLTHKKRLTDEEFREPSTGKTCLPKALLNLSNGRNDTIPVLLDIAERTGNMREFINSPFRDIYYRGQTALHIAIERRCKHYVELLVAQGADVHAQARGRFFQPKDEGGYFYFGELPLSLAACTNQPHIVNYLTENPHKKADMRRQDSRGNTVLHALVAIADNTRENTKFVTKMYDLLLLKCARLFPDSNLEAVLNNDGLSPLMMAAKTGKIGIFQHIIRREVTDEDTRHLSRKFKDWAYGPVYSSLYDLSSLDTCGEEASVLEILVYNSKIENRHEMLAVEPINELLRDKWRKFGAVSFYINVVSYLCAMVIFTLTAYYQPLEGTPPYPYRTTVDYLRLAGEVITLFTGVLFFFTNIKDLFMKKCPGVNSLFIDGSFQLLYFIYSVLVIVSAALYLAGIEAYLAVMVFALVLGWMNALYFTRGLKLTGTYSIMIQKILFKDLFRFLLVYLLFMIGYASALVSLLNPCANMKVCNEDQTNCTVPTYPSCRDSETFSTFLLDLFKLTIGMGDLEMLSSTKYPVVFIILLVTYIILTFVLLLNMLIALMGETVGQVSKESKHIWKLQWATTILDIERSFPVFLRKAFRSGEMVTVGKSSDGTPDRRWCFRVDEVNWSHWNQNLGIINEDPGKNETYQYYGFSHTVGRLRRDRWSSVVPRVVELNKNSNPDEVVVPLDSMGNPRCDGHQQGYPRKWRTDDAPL

[5] = biological target: Transient receptor potential cation channel subfamily A member 1 (Homo sapiens) (UniProt O75762); assay: Antagonist activity at TRPA1 (unknown origin) expressed in HEK293T cells assessed as inhibition of agonist induced channel current by whole-cell patch clamp recordings
Sequence of Transient receptor potential cation channel subfamily A member 1 (Homo sapiens) (O75762 whole entry): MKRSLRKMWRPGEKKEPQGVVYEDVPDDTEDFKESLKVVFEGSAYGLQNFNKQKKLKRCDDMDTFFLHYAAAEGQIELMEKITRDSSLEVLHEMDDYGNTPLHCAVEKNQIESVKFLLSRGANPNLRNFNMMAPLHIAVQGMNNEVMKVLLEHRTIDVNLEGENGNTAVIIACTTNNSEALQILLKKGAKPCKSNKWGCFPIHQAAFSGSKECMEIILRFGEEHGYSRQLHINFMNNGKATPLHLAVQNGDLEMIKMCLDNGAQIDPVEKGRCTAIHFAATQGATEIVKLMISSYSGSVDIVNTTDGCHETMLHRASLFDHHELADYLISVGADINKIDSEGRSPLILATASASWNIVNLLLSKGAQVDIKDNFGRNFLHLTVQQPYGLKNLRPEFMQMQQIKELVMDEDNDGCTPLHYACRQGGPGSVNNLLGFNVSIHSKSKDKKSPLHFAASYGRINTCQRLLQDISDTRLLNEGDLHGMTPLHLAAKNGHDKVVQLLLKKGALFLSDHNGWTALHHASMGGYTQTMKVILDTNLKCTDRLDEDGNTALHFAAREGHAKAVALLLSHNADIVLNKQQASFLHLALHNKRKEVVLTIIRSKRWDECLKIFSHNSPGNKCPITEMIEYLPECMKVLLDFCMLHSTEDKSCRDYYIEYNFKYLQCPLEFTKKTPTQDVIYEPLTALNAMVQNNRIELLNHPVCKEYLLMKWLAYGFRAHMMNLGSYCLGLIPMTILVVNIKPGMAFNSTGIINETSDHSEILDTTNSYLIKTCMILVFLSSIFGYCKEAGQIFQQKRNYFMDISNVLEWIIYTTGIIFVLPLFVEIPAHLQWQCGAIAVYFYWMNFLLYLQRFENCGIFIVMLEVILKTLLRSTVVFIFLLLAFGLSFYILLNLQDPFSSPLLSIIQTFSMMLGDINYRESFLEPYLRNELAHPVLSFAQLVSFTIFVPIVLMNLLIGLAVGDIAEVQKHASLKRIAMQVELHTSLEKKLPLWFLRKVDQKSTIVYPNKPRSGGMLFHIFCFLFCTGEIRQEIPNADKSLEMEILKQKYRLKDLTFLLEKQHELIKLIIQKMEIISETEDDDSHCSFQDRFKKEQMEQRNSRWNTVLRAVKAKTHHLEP

[6] = biological target: Transient receptor potential cation channel subfamily M member 8 (Homo sapiens) (UniProt Q7Z2W7); assay: Antagonist activity at TRPM8 (unknown origin) expressed in HEK293T cells assessed as inhibition of agonist induced channel current by whole-cell patch clamp recordings
Sequence of Transient receptor potential cation channel subfamily M member 8 (Homo sapiens) (Q7Z2W7 whole entry, looked up): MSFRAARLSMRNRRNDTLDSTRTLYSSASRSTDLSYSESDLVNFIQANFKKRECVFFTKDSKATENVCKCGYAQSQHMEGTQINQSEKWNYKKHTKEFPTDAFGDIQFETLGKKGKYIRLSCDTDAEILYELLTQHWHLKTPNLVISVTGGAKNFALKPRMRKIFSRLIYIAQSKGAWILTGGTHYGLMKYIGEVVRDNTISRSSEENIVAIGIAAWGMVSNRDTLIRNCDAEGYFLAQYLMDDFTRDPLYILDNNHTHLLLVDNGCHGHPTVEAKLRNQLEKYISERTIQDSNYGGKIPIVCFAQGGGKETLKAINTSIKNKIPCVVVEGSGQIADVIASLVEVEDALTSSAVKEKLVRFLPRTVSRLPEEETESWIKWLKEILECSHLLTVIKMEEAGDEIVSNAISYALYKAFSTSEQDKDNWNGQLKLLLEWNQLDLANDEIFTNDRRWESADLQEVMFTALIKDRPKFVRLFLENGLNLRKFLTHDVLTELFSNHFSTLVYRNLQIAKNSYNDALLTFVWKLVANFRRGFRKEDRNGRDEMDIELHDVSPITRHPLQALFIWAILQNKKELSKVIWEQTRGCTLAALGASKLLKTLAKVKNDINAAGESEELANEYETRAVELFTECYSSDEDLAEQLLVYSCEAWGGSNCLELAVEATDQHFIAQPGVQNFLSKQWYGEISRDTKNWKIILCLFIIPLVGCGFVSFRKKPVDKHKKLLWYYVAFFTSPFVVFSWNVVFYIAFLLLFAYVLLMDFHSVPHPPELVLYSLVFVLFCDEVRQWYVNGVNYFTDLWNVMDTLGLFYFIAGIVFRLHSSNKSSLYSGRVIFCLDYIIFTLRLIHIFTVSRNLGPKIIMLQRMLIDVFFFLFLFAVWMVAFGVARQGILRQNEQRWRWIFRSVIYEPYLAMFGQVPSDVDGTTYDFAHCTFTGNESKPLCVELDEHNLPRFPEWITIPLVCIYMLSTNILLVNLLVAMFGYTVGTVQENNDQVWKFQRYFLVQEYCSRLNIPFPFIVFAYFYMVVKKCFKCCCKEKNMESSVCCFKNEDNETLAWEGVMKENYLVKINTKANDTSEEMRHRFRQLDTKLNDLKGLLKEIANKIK

Row | inhibition [1] [%] | Structure (SMILES) | also measured
1 | – | O=c1cc(-c2ccc(O)cc2Br)oc2cc(O)cc(O)c12 | inhibition ([1]; filed as antagonist): 51.7%
2 | 10.3 | Cc1ccc(-c2cc(=O)c3c(O)cc(O)cc3o2)cc1 | –
3 | 21.2 | O=c1cc(-c2ccc(F)cc2)oc2cc(O)cc(O)c12 | –
4 | 5.55 | COCOc1cc(OCOC)c2c(c1)OC(c1ccc(F)cc1)CC2=O (stereo not drawn) | –
5 | – | C[C@@H]1O[C@@H](O[C@@H]2[C@@H](O)[C@H](OCCc3ccc(O)c(O)c3)O[C@H](CO[C@@H]3OC[C@](O)(CO)[C@H]3O)[C@H]2OC(=O)/C=C/c2ccc(O)c(O)c2)[C@H](O)[C@H](O)[C@H]1O | inhibition ([1]; filed as antagonist): 58.8%; IC50 [2]: 10.8 µM
6 | 4.96 | COc1ccc(C2CC(=O)c3c(O)cccc3O2)cc1 (stereo not drawn) | –
7 | 3.81 | O=c1cc(-c2ccc(OC(F)(F)F)cc2)oc2cc(O)cc(O)c12 | –
8 | – | COc1ccc(-c2cc(=O)c3c(O)cc(O)cc3o2)cc1 [ACACETIN] | inhibition ([1]; filed as antagonist): 61.8%; IC50 [2]: 0.62 µM; Activity [3]: inactive; Activity [4]: inactive; Activity [5]: inactive; Activity [6]: inactive
9 | 1.94 | O=c1cc(-c2ccc(Br)cc2)oc2cc(O)ccc12 | –
10 | 4.68 | COc1ccc(-c2cc(=O)c3c(O)cccc3o2)cc1 | –
11 | 31.4 | O=c1cc(-c2cccc(O)c2)oc2c(O)c(O)ccc12 | –
12 | 13 | O=c1cc(-c2ccc(O)cc2F)oc2cc(O)cc(O)c12 | –
